How the values were obtained:
Sulfotransferase 1A1 [1] = target: T1, Sulfotransferase 1A1 (Homo sapiens, UniProt P50225); assay: Binding affinity to human SULT1A1 expressed in Escherichia coli assessed as change in intrinsic fluorescence in presence of 3',5'-phosphoadenosine; assay type: ADME
Sulfotransferase 1A1 [2] = target: T1, Sulfotransferase 1A1; assay: Binding affinity to human SULT1A1 expressed in Escherichia coli assessed as change in intrinsic fluorescence; assay type: ADME
Sulfotransferase 1A1 [3] = target: T1, Sulfotransferase 1A1; assay: Inhibition of human SULT1A1 expressed in Escherichia coli assessed as 17beta-estradiol sulfation at 100 nM by Michaelis-Menten equation analysis
Sulfotransferase 1A1 [4] = target: T1, Sulfotransferase 1A1; assay: Inhibition of SULT1A1 in human MCF7 cells assessed as 17beta-estradiol sulfation; assay type: cell-based
Sulfotransferase 1A1 [5] = target: T1, Sulfotransferase 1A1; assay: Inhibition of human SULT1A1 expressed in Escherichia coli assessed as p-nitrophenol sulfation at 100 nM by Michaelis-Menten equation analysis
Sulfotransferase 1A1 [6] = target: T1, Sulfotransferase 1A1; assay: Inhibition of human SULT1A1 expressed in Escherichia coli assessed as beta-naphthol sulfation at 100 nM by Michaelis-Menten equation analysis

T1 sequence (P50225 whole entry): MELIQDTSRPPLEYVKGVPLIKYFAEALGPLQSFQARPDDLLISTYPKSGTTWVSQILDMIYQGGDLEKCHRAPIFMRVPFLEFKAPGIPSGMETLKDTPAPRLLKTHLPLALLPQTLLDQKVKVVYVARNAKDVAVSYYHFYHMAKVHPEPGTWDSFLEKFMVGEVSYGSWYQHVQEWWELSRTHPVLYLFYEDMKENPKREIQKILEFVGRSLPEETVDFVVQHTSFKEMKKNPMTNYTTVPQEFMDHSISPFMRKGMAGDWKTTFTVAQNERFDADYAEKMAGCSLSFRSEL

Ki (Sulfotransferase 1A1 [3]) | IC50 (Sulfotransferase 1A1 [4]) | Ki (Sulfotransferase 1A1 [5]) | Ki (Sulfotransferase 1A1 [6]) | SMILES | Kd (Sulfotransferase 1A1 [1]) | Kd (Sulfotransferase 1A1 [2])
 |  |  |  | C[C@]12CC[C@@H]3c4ccc(O)cc4CC[C@H]3[C@@H]1CC[C@@H]2O [ESTRADIOL] | 1200 nM | 2300 nM
14.9 nM | 20 nM | 8.9 nM | 19 nM | C#C[C@]1(O)CC[C@H]2[C@@H]3CCc4cc(O)ccc4[C@H]3CC[C@@]21C [ETHINYL ESTRADIOL] | 4.3 nM | 500 nM

— ChEMBL document CHEMBL3525919, “Potent inhibition of human sulfotransferase 1A1 by 17α-ethinylestradiol: role of 3'-phosphoadenosine 5'-phosphosulfate binding and structural rearrangements in regulating inhibition and activity” (Drug Metab Dispos, 2012)
